Results reported in the supplement of paper PMC10307832.

Columns and labels:
Assay in all cases: relative viability (nuclei count vs DMSO), 5 days (fraction); higher = more cells survive
[1] = compound: Cn1nnc2c(C(N)=O)ncn2c1=O [Temozolomide] + CC(C)C[C@H](NC(=O)[C@H](Cc1ccccc1)NC(=O)c1cnccn1)B(O)O [Bortezomib] (partner 0.002 µM)
How it was run: (§1)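 After 5 days of treatment, lung cancer cells in 1536-well plates were fixed and stained in a single step (final 0.05% Triton X-100, 1% formaldehyde, 1 ug/ml Hoechst) and their nuclei counted on 4× images. Treatment had been applied by pin tool the day after seeding as one drug alone or as a fixed anchor-drug dose with five library-drug doses (not always all listed) in √10 steps. Relative viability is the nuclei count of treated wells divided by that of vehicle wells, and values are medians of duplicate plates.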

AZD5582 + Alpelisib = compound: C[C@@H](C(=O)N[C@@H](C1CCCCC1)C(=O)N2CCC[C@H]2C(=O)N[C@@H]3[C@@H](CC4=CC=CC=C34)OCC#CC#CCO[C@@H]5CC6=CC=CC=C6[C@@H]5NC(=O)[C@@H]7CCCN7C(=O)[C@H](C8CCCCC8)NC(=O)[C@H](C)NC)NC [AZD5582] + Cc1nc(NC(=O)N2CCC[C@H]2C(N)=O)sc1-c1ccnc(C(C)(C)C(F)(F)F)c1 [Alpelisib] (partner 2 µM)
How it was run: as §1

AZD5582 + Olaparib = compound: C[C@@H](C(=O)N[C@@H](C1CCCCC1)C(=O)N2CCC[C@H]2C(=O)N[C@@H]3[C@@H](CC4=CC=CC=C34)OCC#CC#CCO[C@@H]5CC6=CC=CC=C6[C@@H]5NC(=O)[C@@H]7CCCN7C(=O)[C@H](C8CCCCC8)NC(=O)[C@H](C)NC)NC [AZD5582] + O=C(c1cc(Cc2n[nH]c(=O)c3ccccc23)ccc1F)N1CCN(C(=O)C2CC2)CC1 [Olaparib] (partner 8 µM)
How it was run: as §1

[2] = compound: Cn1nnc2c(C(N)=O)ncn2c1=O [Temozolomide] + C[C@]1(O)C[C@@H](c2nc(-c3ccc4ccc(-c5ccccc5)nc4c3)c3c(N)nccn32)C1 [Linsitinib] (partner 1 µM)
How it was run: as §1

Row | Cell Line | relative viability ([1]; first compound 0.6325 µM) | relative viability ([1]; first compound 2 µM) | relative viability ([1]; first compound 6.325 µM) | relative viability ([1]; first compound 20 µM) | relative viability (AZD5582 + Alpelisib; first compound 0.001581 µM) | relative viability (AZD5582 + Alpelisib; first compound 0.005 µM) | relative viability (AZD5582 + Alpelisib; first compound 0.01581 µM) | relative viability (AZD5582 + Alpelisib; first compound 0.05 µM) | relative viability (AZD5582 + Olaparib; first compound 0.001581 µM) | relative viability (AZD5582 + Olaparib; first compound 0.005 µM) | relative viability (AZD5582 + Olaparib; first compound 0.01581 µM) | relative viability (AZD5582 + Olaparib; first compound 0.05 µM) | relative viability ([2]; first compound 0.2 µM) | relative viability ([2]; first compound 0.6325 µM) | relative viability ([2]; first compound 2 µM) | relative viability ([2]; first compound 6.325 µM) | relative viability ([2]; first compound 20 µM) | relative viability ([1]; first compound 0.2 µM)
1 | HCC-78 | 0.524 | 0.537 | 0.515 | 0.567 | 0.298 | 0.395 | 0.307 | 0.3 | 0.869 | 0.859 | 0.598 | 0.791 | 0.387 | 0.618 | 0.668 | 0.67 | 0.529 | –
2 | HCC-366 | 1.07 | 1.1 | 1.08 | 1.06 | 0.363 | 0.625 | 0.389 | 0.774 | 0.292 | 0.428 | 0.353 | 0.44 | 0.607 | 0.708 | 0.72 | 0.709 | 0.762 | 1.07
3 | HCC-827 | 1.1 | 1.02 | 1.05 | 0.32 | 0.898 | 1.02 | 0.985 | 1.04 | 0.662 | 0.807 | 0.626 | 0.68 | 0.998 | 0.959 | 0.954 | 0.968 | 0.158 | 1.2
4 | HOP-62 | 0.88 | 0.911 | 0.59 | 0.932 | 0.997 | 0.934 | 0.87 | 1.25 | 0.234 | 0.287 | 0.252 | 0.232 | 1.05 | 1.01 | 0.895 | 0.832 | 0.866 | 0.801
5 | IA-LM | 0.988 | 1.04 | 0.742 | 0.945 | 0.686 | 0.71 | 0.844 | 0.686 | 0.708 | 0.586 | 0.649 | 0.582 | 0.941 | 0.518 | 0.664 | 0.548 | 0.909 | 0.794
6 | LC-2-ad | 0.984 | 1.02 | 0.945 | 0.945 | 0.911 | 0.98 | 0.834 | 1.11 | 0.68 | 0.715 | 0.659 | 0.805 | 0.795 | 0.823 | 0.808 | 0.751 | 0.807 | 1.17
7 | LCLC-97TM1 | 0.594 | 0.749 | 0.68 | 0.687 | – | 0.269 | 0.226 | 0.23 | 0.38 | 0.319 | 0.366 | 0.272 | 0.191 | 0.19 | 0.173 | 0.176 | 0.203 | 1.48
8 | LCLC-103H | 1.09 | 1.04 | 1.08 | 1.01 | 0.97 | 1.23 | 0.471 | 0.64 | 0.806 | 0.836 | 0.714 | 0.862 | 1.03 | 1.05 | 1.23 | 1.09 | 1.01 | 1.13
9 | LK-2 | – | – | – | – | 1.05 | 1.15 | 1.28 | 1.33 | 0.63 | 0.702 | 0.772 | 0.675 | 0.359 | 0.543 | 0.418 | 0.382 | 0.253 | –
